{
  "source": "patent US20150225454A1",
  "about": "“TETRABRANCHED PEPTIDES AND ANALOGUES AS A NEW CLASS OF ANTIMICROBIALS AND THEIR PREPARATION THEREOF” (priority 2012, published 2015)",
  "key": {"C. albicans [1]": {"tested_on": "C. albicans", "format": "cell-based", "settings": "50% tear fluid", "method": "For all the experiments, unless otherwise stated, ATCC 10231 strain was used. B4010 (1 mg/ml) was incubated with trypsin (enzyme:peptide ratio 1:100) at 37° C. 20 μL aliquot of this mixture was withdrawn at various time intervals (0.5, 1, 2, 4 and 6 h) and mixed with 1 μL of trypsin inhibitor. The antifungal activity of the peptide was determined by adding this mixture to 180 μl of inoculum and monitoring the growth at OD600 for 24 h. Similar experiments performed in the presence of trypsin/trypsin inhibitor (without B4010) were used as a positive control. For assessing the antifungal activity in tear fluid (TF), the peptide was dissolved in freshly collected rabbit TF and incubated at 37° C. for 6 h. After incubation, an equal volume of an overnight culture of C. albicans (˜10^6 CFU/ml) was mixed with peptides in tear fluid and incubated at 37° C. for 24 h. The final concentrations of the peptide were at 4.4, 8.8 and 22 μM. A 100 μL aliquot of serial dilutions (10^2 or 10^3 times) of this mixture were inoculated on a SD agar plate and then incubated for 48 h at 37° C. Culture alone and culture with 50% tear fluid served as the positive control. The data was expressed in % killing with respect to culture without tear fluid."}, "[2]": {"assay": "Calcein release from mammalian model membrane SUVs", "settings": "PC:Cholesterol, compared with fungal model membrane", "method": "Small unilamellar vesicles (SUVs) were prepared using PC/PE/PI or PS lipids (5:2.5:2.5) containing 15 wt % ergosterol or PC/Cholesterol (10:1) (Makovitzki et al., 2006). For the preparation of PC/PE/PI or PS/Erg SUV, the lipids were dissolved in chloroform/methanol (2:1, v/v) in a glass tube. Ergosterol was dissolved in same solvent and added to lipid mixture to make final ergosterol content of 15 wt %. The Lipid-ergosterol mixture was dried using nitrogen gas to form lipid layer. The film was hydrated in a buffer containing 20 mM PBS (pH 7), vortexed and sonicated. Each cycle of sonication (5 sec, 40° C.) is followed by freezing in liquid nitrogen and thawing on a water bath kept at 37° C. The procedure was repeated 5-6 times until an optically clear dispersion appeared. The SUV was divided into two parts. To the first part 50 mM calcein was added and incubated for 1 h. […] Changes in the fluorescence signal after addition of peptide or Triton X-100 was measured on a PTI spectrofluorometer, using an excitation wavelength of 480 nm and emission wavelength of 512 nm. The Percentage calcein released at each time point was calculated using the equation: […]\nWhere A0 is the observed fluorescence intensity upon addition of peptides, Amin is the average intensity at the baseline (before peptide addition), Amax is the average intensity at the saturation phase after adding 1% Triton X-100. […]"}, "C. albicans (ATCC 10231)": {"tested_on": "C. albicans (ATCC 10231)", "assay": "SYTOX Green (SG) uptake assay", "format": "cell-based"}, "[3]": {"assay": "SDS-PAGE pull down assay with cell wall polysaccharides", "format": "binding", "settings": "chitin or β-D-glucan, 5.5-22 μM, 2 h, 37° C.", "method": "In another study to probe the mechanism of action, the affinity of B4010 for insoluble polysaccharides such as chitin and β-D-glucan, the major component of fungal cell walls was examined. B4010 (5.5-22 μM) was incubated with chitin (from shrimp shells) or β-D-glucan for 2 h at 37° C. The mixture was centrifuged at 10,000 g and the supernatant was analyzed by SDS-PAGE (4-20%). A control experiment without chitin/β-D-glucan was also performed to quantify peptide binding to the carbohydrate polymers."}, "[4]": {"tested_on": "C. albicans 2672R and C. albicans 1976R", "format": "cell-based", "settings": "two clinical isolates", "method": "The effect of 5% human serum on the activities of B4010 against two C. albicans clinical isolates was determined. The human male serum was centrifuged at 13,000 rpm for 10 mins in order to remove the lipids and the supernatant was collected. The MIC values against clinical isolates of C. albicans 2672R and C. albicans 1976R were determined both in standard medium (SD broth) as well as in standard medium containing 5% serum supernatant as before."}, "C. albicans [5]": {"tested_on": "C. albicans", "assay": "ATP bioluminescence assay (extracellular ATP release)", "format": "cell-based", "method": "The extracellular ATP levels upon challenging C. albicans with B4010 were determined as reported before (Koshlukova et al., 1999). Cells (OD600≈0.6) were incubated […] with or without various additives for 2 hours at 37° C. with orbital shaking. […] Each tube was then centrifuged at 5000 g for 5 mins. Then 225 μL of boiling TE buffer (50 mM Tris, 2 mM EDTA, pH 7.8) was added to the 25 μl of the supernatant and mixed well. This mixture was boiled again for another 2 minutes and stored at 4° C. until further examination. 100 μL of a luciferin-luciferase ATP assay mixture was added to 100 μL of the supernatant and luminescence was monitored using the Infinite M200 microplate reader (Tecan Group Ltd., Switzerland). […] For dose-dependent studies, the concentration of the peptide was varied from 0.4-44 μM. The extracellular ATP concentration was determined from calibration curve obtained by ATP assay kit (Molecular Probes, OR, USA) as per the manufacturer's instruction."}, "[6]": {"tested_on": "C. albicans (ATCC 10231 and DF2672R)", "format": "cell-based", "settings": "for time to 4 log reduction (99.99%) in viable cells: ATCC strain", "method": "The time-kill kinetics was measured for two strains of C. albicans (ATCC 10231 and DF2672R). The cultures were grown overnight in SD broth and the cell concentration was adjusted to 10^5-10^6 CFU/ml with phosphate buffer. The peptide or antifungals were added to the individual cultures. […] The test solution was incubated at 37° C. with constant shaking. 100 μL of the suspension is withdrawn at predetermined time points, serially diluted (10^2 or 10^3 fold) and poured into the SDA plate. The plate was incubated for 48 h at 37° C. for colony counting. The data were expressed in terms of % cell viability relative to the positive control."}},
  "note": "Like-named read-outs stand apart in the source and are kept apart here. Where a SMILES comes first, the peptide text is derived from it. Bridges are numbered along the chain shown (N, C = ends). Roman numbers before positions name the chains, in order.",
  "data": [
    {"smiles": "CC(C)[C@H](NC(=O)[C@H](CCCCN)NC(=O)[C@H](CCCNC(=N)N)NC(=O)CNC(=O)[C@@H](N)CCCNC(=N)N)C(=O)N[C@H](C(=O)N[C@@H](CCCNC(=N)N)C(=O)N[C@@H](CCCNC(=N)N)C(=O)NCCCC[C@H](NC(=O)[C@H](CCCNC(=N)N)NC(=O)[C@H](CCCNC(=N)N)NC(=O)[C@@H](NC(=O)[C@@H](NC(=O)[C@H](CCCCN)NC(=O)[C@H](CCCNC(=N)N)NC(=O)CNC(=O)[C@@H](N)CCCNC(=N)N)C(C)C)C(C)C)C(=O)NCCCC[C@H](NC(=O)[C@H](CCCCNC(=O)[C@H](CCCNC(=N)N)NC(=O)[C@H](CCCNC(=N)N)NC(=O)[C@@H](NC(=O)[C@@H](NC(=O)[C@H](CCCCN)NC(=O)[C@H](CCCNC(=N)N)NC(=O)CNC(=O)[C@@H](N)CCCNC(=N)N)C(C)C)C(C)C)NC(=O)[C@H](CCCNC(=N)N)NC(=O)[C@H](CCCNC(=N)N)NC(=O)[C@@H](NC(=O)[C@@H](NC(=O)[C@H](CCCCN)NC(=O)[C@H](CCCNC(=N)N)NC(=O)CNC(=O)[C@@H](N)CCCNC(=N)N)C(C)C)C(C)C)C(=O)N[C@@H](CCCCN)C(=O)O)C(C)C", "note": "[Peptide B4010] (I: H-RGRKVVRRKKK-OH / II: H-RGRKVVRRK / III: H-RGRKVVRR / IV: H-RGRKVVRR; amide I:9-IV:C, I:10-II:C, II:9-III:C; N-terminus and C-terminus assumed)", "values": [
      {"measurement": "candidacidal activity", "setting": "C. albicans [1]; 22 μM", "result": "no loss of activity"},
      {"measurement": "candidacidal activity", "setting": "C. albicans [1]; 4.4 and 8.8 μM", "result": "moderately suppressed"},
      {"measurement": "calcein leakage", "setting": "[2]", "result": "less calcein leakage"},
      {"measurement": "SG uptake (permeation)", "setting": "C. albicans (ATCC 10231); 1×MIC", "result": 24, "unit": "%"},
      {"measurement": "cells membrane compromised", "setting": "C. albicans (ATCC 10231); 2×MIC, 10 mins", "result": "About 70%"},
      {"measurement": "dye uptake", "setting": "C. albicans (ATCC 10231); 4×MIC, within 25 mins", "result": "> 90", "unit": "%"},
      {"measurement": "SG uptake (permeation)", "setting": "C. albicans (ATCC 10231); ½×MIC", "result": 13, "unit": "%"},
      {"measurement": "affinity for cell wall polysaccharides (coprecipitation)", "setting": "[3]", "result": "no affinity"},
      {"measurement": "MIC", "setting": "[4]; 5% human serum", "result": 5.5, "unit": "µM"},
      {"measurement": "MIC", "setting": "[4]; without serum", "result": 0.34, "unit": "µM"},
      {"measurement": "time to maximum ATP efflux", "setting": "C. albicans [5]; 4×MIC", "result": "≤ 30", "unit": "min"},
      {"measurement": "concentration of maximum ATP release", "setting": "C. albicans [5]; dose-dependent study", "result": "around 4 ×MIC"},
      {"measurement": "time to complete killing", "setting": "[6]; 4×MIC", "result": 30, "unit": "min"},
      {"measurement": "killing", "setting": "[6]; ATCC 10231, 1 h, 1", "result": "~91", "unit": "%"},
      {"measurement": "killing", "setting": "[6]; ATCC 10231, 48 h, 2", "result": "~97", "unit": "%"},
      {"measurement": "time to 3 log reductions of viable cells", "setting": "[6]; ATCC and clinical isolates, 2× or 4×MIC", "result": "less than 1 h"},
      {"measurement": "time to 4 log reduction (99.99%) in viable cells", "setting": "[6]; 4×MIC", "result": "≤ 20", "unit": "minutes"},
      {"measurement": "time to 4 log reduction (99.99%) in viable cells", "setting": "[6]; 8×MIC", "result": "≤ 10", "unit": "minutes"},
      {"measurement": "time to complete killing", "setting": "[6]; C. albicans DF2672R, 2×MIC", "result": 60, "unit": "min"}
    ]}
  ]
}
